Assay results: the NIST ThermoML archive (doi:10.1016/j.fluid.2007.04.030)

Test: xn = mol fraction of the nth substance listed
Conditions: 101 kPa, Liquid

COc1cc2c(cc1O)CC1c3c(cc(O)c(OC)c3-2)CCN1C (stereo not drawn) [boldine] + CCCCCCO
mass density [kg/m3]
Conditions	x1 = 0.00308	x1 = 0.00633	x1 = 0.00958
283.15 K	831.02	834.31	837.66
288.15 K	827.44	830.73	834.07
293.15 K	823.83	827.12	830.46
298.15 K	820.21	823.49	826.82
303.15 K	816.56	819.84	823.16
308.15 K	812.88	816.16	819.48
313.15 K	809.17	812.44	815.76
318.15 K	805.43	808.7	812.01
323.15 K	801.65	804.91	808.22
328.15 K	797.83	801.09	804.39
333.15 K	793.97	797.22	800.51

COc1cc2c(cc1O)CC1c3c(cc(O)c(OC)c3-2)CCN1C (stereo not drawn) [boldine] + CCCCCO
mass density [kg/m3]
Conditions	x1 = 0.00272	x1 = 0.00547	x1 = 0.00826
283.15 K	825.74	829.04	832.39
288.15 K	822.11	825.4	828.75
293.15 K	818.44	821.73	825.07
298.15 K	814.76	818.04	821.37
303.15 K	811.05	814.33	817.65
308.15 K	807.31	810.58	813.91
313.15 K	803.53	806.8	810.12
318.15 K	799.72	802.99	806.31
323.15 K	795.87	799.13	802.45
328.15 K	791.97	795.23	798.54
333.15 K	788.02	791.28	794.59

COc1cc2c(cc1O)CC1c3c(cc(O)c(OC)c3-2)CCN1C (stereo not drawn) [boldine] + CCCCO
mass density [kg/m3]
Conditions	x1 = 0.00228	x1 = 0.00461	x1 = 0.00696	x1 = 0.00936	x1 = 0.01178	x1 = 0.01427	x1 = 0.01678
283.15 K	820.49	823.85	827.2	830.57	833.94	837.36	840.79
288.15 K	816.73	820.08	823.43	826.79	830.16	833.57	837
293.15 K	812.93	816.28	819.62	822.98	826.35	829.75	833.18
298.15 K	809.11	812.45	815.8	819.15	822.52	825.92	829.34
303.15 K	805.26	808.6	811.94	815.29	818.66	822.06	825.48
308.15 K	801.39	804.72	808.06	811.4	814.77	818.16	821.58
313.15 K	797.47	800.81	804.14	807.48	810.84	814.23	817.64
318.15 K	793.52	796.85	800.17	803.52	806.87	810.25	813.67
323.15 K	789.52	792.84	796.17	799.51	802.86	806.23	809.66
328.15 K	785.47	788.79	792.11	795.45	798.79	802.17	805.59
333.15 K	781.35	784.67	787.99	791.32	794.67	798.05	801.46
